pIC50: −log10 of the molar value.
How the values were obtained:
Etk = molecular target: T1, Etk (Homo sapiens, UniProt P51813); assay: Etk autophosphorylation assay (in vitro kinase assay); type: biochemical; conditions: purified Etk, 33P-ATP, 30 min
T1 construct: purchased Millipore Inc (Dundee, UK)
T1 sequence (P51813 1-675): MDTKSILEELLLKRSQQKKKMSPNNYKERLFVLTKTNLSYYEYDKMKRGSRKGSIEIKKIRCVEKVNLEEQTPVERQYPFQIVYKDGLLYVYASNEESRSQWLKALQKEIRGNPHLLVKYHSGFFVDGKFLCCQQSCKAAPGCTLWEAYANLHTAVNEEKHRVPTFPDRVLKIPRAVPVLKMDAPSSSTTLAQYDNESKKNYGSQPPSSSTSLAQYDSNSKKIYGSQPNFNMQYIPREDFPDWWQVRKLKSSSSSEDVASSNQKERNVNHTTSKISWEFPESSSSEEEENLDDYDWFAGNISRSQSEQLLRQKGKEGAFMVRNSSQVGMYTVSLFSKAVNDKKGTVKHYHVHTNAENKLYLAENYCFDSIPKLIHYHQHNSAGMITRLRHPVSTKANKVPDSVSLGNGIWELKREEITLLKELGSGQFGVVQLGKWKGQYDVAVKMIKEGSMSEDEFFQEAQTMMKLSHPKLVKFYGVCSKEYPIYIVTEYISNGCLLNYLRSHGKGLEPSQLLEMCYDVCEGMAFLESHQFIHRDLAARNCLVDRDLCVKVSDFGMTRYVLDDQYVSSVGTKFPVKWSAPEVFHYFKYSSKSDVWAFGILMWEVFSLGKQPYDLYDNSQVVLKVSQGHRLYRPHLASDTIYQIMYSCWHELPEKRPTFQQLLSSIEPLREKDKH
Procedure: Etk autophosphorylation activity was measured by an in vitro kinase assay. Briefly, purified Etk (100 ng) was mixed with CTA095 in the kinase assay buffer (20 mM Hepes pH 7.55, 10 mM MgCl2, 10 mM MnCl2, 1 mM DTT, 500 μM Na3VO4). The cold ATP (5 µM) and hot r-^33P-ATP (5 µCi) were added to the mixture and the kinase reaction was performed at 30°C for 30 min. The reactions were terminated with a 4X SDS-PAGE sample buffer, and then loaded onto an 8% SDS-polyacrylamide gel for electrophoresis. The gel was vacuum dried and the ETK auto kinase activity was analyzed with a phosphoimager (Biorad).
The Btk family of non-receptor tyrosine kinases is characterized by the presence of an autophosphorylation site within the non-catalytic Src homology 3 (SH3) domain. Thus, it was also important to determine the ability of CTA095 to inhibit Etk autophosphorylation. Therefore, an in vitro Etk autophosphorylation assay was established in which purified Etk was mixed with CTA095 in the presence of ^33P-ATP. After 30 min, the reaction was terminated, and the samples were loaded onto an SDS-polyacrylamide gel for electrophoresis. After drying, the gel was analyzed with a phosphoimager.

PC3-AZD20 cells = assay: MTT cell viability in Src inhibitor resistant cells; type: cell-based, human; conditions: 72 h
Procedure: PC3 and PC3-AZD20 (PC3 cell resistant to 20 μM AZD0530, which is from AstraZeneca through MTA with Dr. Chris Evans) cells were seeded at 2000 cells/well in 96 well plates overnight. The cells were treated with AZD0530 or CTA095 at the indicated concentrations. Cell viability was measured using an MTT assay after 72 h.
Figure 11 CTA095 overcomes Src inhibitor resistance in prostate cancer cells. PC3 and PC3-AZD20 (PC3 cell resistant to 20 μM AZD0530) cells were seeded at 2000 cells/well in 96 well plates overnight. The cells were treated with AZD0530 or CTA095 at the indicated concentrations. Cell viability was measured using MTT assay after 72 h. Symbols, mean; bars, standard deviation, n = 3.

PC3 cells = assay: MTT growth inhibition assay; type: cell-based, human
Procedure: Cells were seeded in 96-well plates and cultured overnight, followed by treatment with 0.1% DMSO, as the vehicle control, and CTA095, at the indicated concentrations for 72 h. Growth inhibition was measured using a 3-(4,5-Dimethylthiazol-2-yl)-2,5-diphenyltetrazolium bromide (MTT) assay (Roche Diagnostic, Mannheim, Germany).
Figure 5 Growth Inhibition of CTA095 to LNCAP, CWR22Rv1, PC3 prostate cancer and normal prostate (RWPE1) cells. Cells were seeded at 5,000 cells/well in 96-well plate overnight and treated with CTA095 at the indicated concentrations. The cell viability was measured using MTT assay after 72 h. dots, mean; bars, standard deviation, n = 3.
Figure 9 CTA095 as a chemo sensitizer. Growth Inhibition of CTA095 and in combination with 10 μM chloroquine (CQ), or 2 ng/ml paclitaxel (PTX) to PC3 human prostate cancer cells. Cells were seeded at 5,000 cells/well in 96-well plate overnight and pretreated with the corresponding co-treatments for 1h, then treated with 2.5 μM CTA095. The cell viability was measured using MTT assay after 72 h. Columns, mean; bars, standard deviation, n = 3.

Btk = molecular target: T2, Btk (Homo sapiens, UniProt Q06187); assay: Kinase inhibition assay (TLC; Kinase-Glo in Figure S2); type: biochemical
T2 construct: purchased Millipore Inc (Dundee, UK)
Procedure: Kinase inhibition was measured using thin-layer-chromatography (TLC). Briefly, purified kinases (20 nM), the corresponding substrate (500 µM, TSFYGRH for Etk, YIYGSFK for the other kinases), and CTA095 (0–10 µM) were incubated in a kinase reaction (100 mM Hepes, pH 7.4, 10 mM MnCl2, 10 mM MgCl2, 1 mM DTT) for 5 min, and the reaction was started by adding 5 μCi ^33P-labeled ATP. The reaction (10 µl) was incubated at room temperature for 1 h and was stopped by adding 10 μL H3PO4. The radioactivity of the peptide substrate was analyzed using TLC as previously described.
Having isolated a small molecule that inhibits Etk, the next logical step was to determine its specificity for this enzyme. To accomplish this, purified Etk, Btk, Src and Yes were incubated in a kinase reaction buffer with CTA095 (0–1 μM) in the presence of ^33P-labeled ATP and a peptide (YIYGSFK), previously shown to be an excellent substrate for both BTK and Src family kinases. The kinase activity was measured using TLC technique.
Supplementary file pone.0070910.s002.tif: Figure S2 Inhibition of Btk by CTA095. Purified Btk (20 nM), CTA095 (0–100 μM), ATP (500 μM) and the peptide substrate (YIYGSFK) were incubated in a kinase reaction. The kinase activity was measured using Kinase-Glo assay kit (Promega Inc.) following the manufacture's instruction. Columns, mean; bars, standard deviation, n = 3. […]

T2 sequence (Q06187 whole entry): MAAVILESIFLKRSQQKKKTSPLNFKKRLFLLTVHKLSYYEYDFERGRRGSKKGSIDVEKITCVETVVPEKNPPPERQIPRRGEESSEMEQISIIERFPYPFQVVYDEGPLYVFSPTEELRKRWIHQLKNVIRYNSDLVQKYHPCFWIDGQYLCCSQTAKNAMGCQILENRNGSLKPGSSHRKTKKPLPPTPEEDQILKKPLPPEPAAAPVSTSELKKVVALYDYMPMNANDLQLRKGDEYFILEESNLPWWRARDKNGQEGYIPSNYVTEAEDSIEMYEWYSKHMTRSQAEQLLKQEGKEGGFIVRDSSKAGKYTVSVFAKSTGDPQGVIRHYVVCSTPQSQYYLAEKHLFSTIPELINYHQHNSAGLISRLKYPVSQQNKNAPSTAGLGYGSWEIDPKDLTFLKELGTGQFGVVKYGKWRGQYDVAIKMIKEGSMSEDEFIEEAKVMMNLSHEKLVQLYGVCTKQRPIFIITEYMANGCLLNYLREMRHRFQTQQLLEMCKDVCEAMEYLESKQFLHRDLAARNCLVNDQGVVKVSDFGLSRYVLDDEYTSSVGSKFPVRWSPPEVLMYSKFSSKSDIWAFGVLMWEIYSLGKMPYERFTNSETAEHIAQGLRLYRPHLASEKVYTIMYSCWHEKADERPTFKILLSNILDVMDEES

pIC50 (PC3 cells; Homo sapiens, PC-3, PC3, MTT, 72 h): 5.35 | pIC50 (Btk): < 5.00
SMILES: O=c1[nH]c2cc3nc(-c4ccc5oc6ccccc6c5c4)n(CCCN4CCCCC4)c3cc2nc1-c1ccccc1 [CTA095, 2-(dibenzo[b,d]furan-2-yl)-7-phenyl-1-(3-(piperidin-1-yl)propyl)-1H-imidazo[4,5-g]quinoxalin-6(5H)-one]
Etk autophosphorylation (Etk): inhibit Etk autophosphorylation in a concentration dependent manner | IC50 in PC3-AZD20 cells (PC3-AZD20 cells): almost identical to that of the parental PC3 cells | cell viability / sensitivity of PC3-AZD20 cells (PC3-AZD20 cells): highly sensitive | growth inhibition in combination with chloroquine (CQ) (PC3 cells; PC3, 2.5 μM CTA095 + CQ 10 μM, MTT, 72 h): synergistic effect | growth inhibition in combination with paclitaxel (PTX) (PC3 cells; PC3, 2.5 μM CTA095 + PTX 2 ng/ml, MTT, 72 h): synergistic effect | combination with autophagy inducer RPM (PC3 cells; prostate cancer cells, co-treatment with rapamycin (RPM)): synergizes
